{
  "source": "patent US20150126582A1",
  "about": "“Combination Treatment of Multiple Myeloma” (Sevion Therapeutics, Inc., priority 2012, published 2015)",
  "key": {"[1]": {"tested_on": "human myeloma tumors derived from RPMI 8226 cells", "experiment": "Additional study: RPMI 8226 myeloma tumors in mice, 2 cycles of treatment, 102 days", "format": "in vivo", "description": "In an additional study, mice implanted with human myeloma tumors derived from RPMI 8226 cells were randomized into 4 groups and treated with control nanoparticles, or, either SNS01-T (0.375 mg/kg; i.v., twice per week), lenalidomide (50 mg/kg; i.p., 5× per week) or both. The mice received 2 cycles of treatment, 6 weeks and 5 weeks respectively, with an 11 day rest period between cycles. Mice, whose tumors were undetectable at the end of cycle 1, received no drug treatment in cycle 2 unless tumor reappeared. The mice were monitored for 2 weeks after the end of the second cycle of treatment. The total length of the study was 102 days."}, "RPMI 8226 myeloma cells": {"tested_on": "RPMI 8226 myeloma cells", "experiment": "RPMI 8226 multiple myeloma subcutaneous tumors in SCID mice, 6 weeks of dosing", "details": "for tumor growth inhibited compared to control nanoparticles: end of 6 weeks of dosing", "procedure": "SCID mice are injected subcutaneously with RPMI 8226 cells. […] Groups of six SCID/CB17 mice (3-5 weeks old) are injected with 12 million RPMI 8226 myeloma cells in 200 μL PBS in their right flank and treatment is initiated when the tumours reached a minimum size of 10 mm^3.\nControl mice are injected intravenously two times per week with PEI complexes containing pCpG-mcs (empty vector) and control siRNA at a dose of 0.375 mg (nucleic acid)/kg. Mice receiving SNS01-T were injected intra-venously two times per week at 0.375 mg/kg. Mice treated with lenalidomide received 5 doses per week by intra-peritoneal injection of lenalidomide (Celgene) at doses of 15 mg/kg or 50 mg/kg. Mice receiving both SNS01-T and lenalidomide were dosed 2×/week with SNS01-T by intra-venous injection at 0.375 mg/kg and 5× per week with lenalidomide by intra-peritoneal injection at either 15 mg/kg or 50 mg/kg. […] Tumor volume is measured for all the mice in each group at least twice weekly."}},
  "data": [
    {"smiles": "Nc1cccc2c1CN(C1CCC(=O)NC1=O)C2=O", "note": "(racemic) [lenalidomide, 3-(4-amino-oxo-1,3-dihydro-isoindol-2-yl)-piperidine-2,6-dione]", "values": [
      {"measurement": "tumor growth inhibited compared to control nanoparticles", "setting": "[1]; end of the second cycle of dosing, lenalidomide 50 mg/kg i.p. 5x per week (alone, or with SNS01-T 0.375 mg/kg i.v. twice per week)", "value": 34, "unit": "%"},
      {"measurement": "median survival", "setting": "[1]; lenalidomide 50 mg/kg i.p. 5x per week, study length 102 days", "value": 95, "unit": "days"},
      {"measurement": "tumor growth inhibited compared to control nanoparticles", "setting": "RPMI 8226 myeloma cells; lenalidomide 15 mg/kg i.p. 5 doses/week (alone, or with SNS01-T 0.375 mg/kg i.v. 2x/week)", "value": 51, "unit": "%"},
      {"measurement": "tumor growth inhibited compared to control nanoparticles", "setting": "RPMI 8226 myeloma cells; lenalidomide 50 mg/kg i.p. 5 doses/week (alone, or with SNS01-T 0.375 mg/kg i.v. 2x/week)", "value": 78, "unit": "%"},
      {"measurement": "surviving animals with undetectable tumors", "setting": "RPMI 8226 myeloma cells; end of 6 weeks, lenalidomide alone, 15 mg/kg or 50 mg/kg i.p. 5x/week", "value": "No surviving animals"},
      {"measurement": "median survival", "setting": "RPMI 8226 myeloma cells; lenalidomide 15 mg/kg i.p. 5x/week", "value": 53, "unit": "days"}
    ]}
  ]
}
